Experimental data: US20250388564A1, “METHODS OF MANUFACTURING PYRIDAZINONE COMPOUNDS” (Edgewise Therapeutics, Inc., priority 2022, published 2025)
≈ marks a conversion by molar mass, not a printed value.

Experiment: Solubility of Compound IX in solvents (Table 1)
Type: physicochemical
Details: for solubility: organic solvent or mixture

solubility (1,4-dioxane, solvent 1,4-dioxane (entry 8)): 2900 µg/mL (≈ 10.7 mM) | solubility (ACN, solvent ACN (entry 6)): 1500 µg/mL (≈ 5.51 mM) | solubility (DCE, solvent DCE (entry 1)): 150 µg/mL (≈ 0.551 mM) | solubility (DCM, solvent DCM (entry 17)): 300 µg/mL (≈ 1.1 mM) | solubility (DMA, solvent DMA (entry 19)): 13000 µg/mL (≈ 47.8 mM) | solubility (DME, solvent DME (entry 4)): 3260 µg/mL (≈ 12 mM) | solubility (DME, solvent DME (entry 21)): 10000 µg/mL (≈ 36.7 mM) | solubility (DMF, solvent DMF (entry 18)): 21000 µg/mL (≈ 77.2 mM) | solubility (DMSO, solvent DMSO (entry 10)): 45000 µg/mL (≈ 165 mM) | solubility (EA, solvent EA (entry 16)): 700 µg/mL (≈ 2.57 mM) | solubility (EtOH, solvent EtOH (entry 12)): 1000 µg/mL (≈ 3.67 mM) | solubility (MTBE, solvent MTBE (entry 15)): 100 µg/mL (≈ 0.367 mM) | solubility (MeOH, solvent MeOH (entry 11)): 2500 µg/mL (≈ 9.18 mM) | solubility (NMP, solvent NMP (entry 20)): 44000 µg/mL (≈ 162 mM) | solubility (THF, solvent THF (entry 5)): 2730 µg/mL (≈ 10 mM) | solubility (acetone, solvent Acetone (entry 2)): 1590 µg/mL (≈ 5.84 mM) | solubility (i-PrOH, solvent i-PrOH (entry 13)): 500 µg/mL (≈ 1.84 mM) | solubility (in words) (overall statement on Table 1): limited solubility | solubility (t-BuOH, solvent t-BuOH (entry 14)): 100 µg/mL (≈ 0.367 mM) | solubility (thietane 1,1-dioxide, solvent thietane 1,1-dioxide (entry 3)): 6350 µg/mL (≈ 23.3 mM)
SMILES: O=c1ccc(-c2cnc(OCC(F)(F)F)nc2)n[nH]1 [Compound IX, 6-[2-(2,2,2-trifluoroethoxy)pyrimidin-5-yl]-2,3-dihydropyridazin-3-one]
